Laboratory results from patent publication US12233045B2, “Therapeutic agent for treating bradyarrhythmia” (OSAKA UNIVERSITY, priority 2018, dated 2025).
Positions count from the first letter of the chain named.

Legend:
[1] = biological target: T1, KCNJ3 N83H KACh channel (Homo sapiens, UniProt P48544+P48549, N83H); experiment: two-electrode voltage clamp, KACh channel expressed in Xenopus laevis oocytes (N83H mutant); format: cell-based; conditions: for inhibition of the N83H mutant compared with the WT KACh channel: N83H vs WT; for inhibitory effect on the KCNJ3 N83H KACh channel: two-electrode voltage clamp
T1 construct: expressed in transfected cells; host or cells: Xenopus laevis oocytes (cRNA injection)
T1 sequence (P48549 1-501 N83H): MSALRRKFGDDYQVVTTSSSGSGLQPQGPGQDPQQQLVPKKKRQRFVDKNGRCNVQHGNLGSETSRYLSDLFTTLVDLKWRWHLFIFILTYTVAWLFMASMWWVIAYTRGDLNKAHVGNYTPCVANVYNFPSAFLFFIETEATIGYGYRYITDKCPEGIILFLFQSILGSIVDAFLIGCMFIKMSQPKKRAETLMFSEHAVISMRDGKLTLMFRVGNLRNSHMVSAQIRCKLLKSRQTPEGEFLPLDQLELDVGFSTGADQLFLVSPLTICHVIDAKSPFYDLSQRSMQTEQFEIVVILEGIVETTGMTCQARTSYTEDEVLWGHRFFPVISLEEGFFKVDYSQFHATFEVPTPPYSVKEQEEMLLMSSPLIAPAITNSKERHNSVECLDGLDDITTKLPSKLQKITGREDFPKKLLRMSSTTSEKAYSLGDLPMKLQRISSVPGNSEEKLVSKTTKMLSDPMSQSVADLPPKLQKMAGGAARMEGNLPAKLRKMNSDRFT
T1 sequence (P48544 1-419): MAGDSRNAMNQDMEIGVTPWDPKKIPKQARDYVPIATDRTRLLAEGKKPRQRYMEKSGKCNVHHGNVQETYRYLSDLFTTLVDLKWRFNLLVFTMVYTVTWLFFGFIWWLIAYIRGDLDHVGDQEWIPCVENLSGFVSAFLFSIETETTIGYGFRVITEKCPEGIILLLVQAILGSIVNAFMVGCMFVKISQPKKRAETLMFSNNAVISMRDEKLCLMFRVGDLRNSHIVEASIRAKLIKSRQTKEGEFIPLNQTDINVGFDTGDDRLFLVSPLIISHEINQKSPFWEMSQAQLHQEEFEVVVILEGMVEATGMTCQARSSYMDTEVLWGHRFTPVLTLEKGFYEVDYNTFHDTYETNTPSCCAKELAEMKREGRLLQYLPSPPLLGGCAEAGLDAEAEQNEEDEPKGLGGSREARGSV
Excerpt: (§1) By co-expressing with […] subunits of G protein, a whole cell current was able to be directly measured via the activated KACh channel.
The coding sequence of human KCNJ3 WT was obtained by amplifying a human KCNJ3 cDNA clone (commercially available from Invitrogen) by PCR, and subcloning it into a pCS2+ vector (commercially available from Addgene). The c.247A>C mutation providingKCNJ3 N83H was introduced by site-directed mutagenesis through PCR. Similarly, the human KCNJ5 coding sequence was obtained by amplifying a human KCNJ5 cDNA clone (commercially available from Invitrogen) by PCR and subcloning it into a pCS2+ vector. The cRNAs of KCNJ3 WT, KCNJ3 N83H and KCNJ5 were synthesized from linearized cDNA using an mMESSAGE mMACHINE kit (commercially available from Life Technologies) vitro transcription. cRNA of KCNJ3 N83H or KCNJ3 WT and cRNA of wild type KCNJ5 were injected into Xenopus laevis oocytes together with cRNA of β and γ subunits of G protein, and incubated in an ND96 solution at 18° C. for 48 to 96 hours.
For the extracellular fluid, the pH of a test bath solution containing 40 mM potassium chloride, 50 mM sodium chloride, 3 mM magnesium chloride M, 0.15 mM niflumic acid, and 5 mMHEPES was adjusted to 7.4 with potassium hydroxide.
(§2) The whole cell current via the expressed KACh channel was measured by a two-electrode voltage clamp method using a GeneClamp 500 amplifier (commercially available from Molecular Devices). The compound (II) dissolved in DMSO, and a perfusate was prepared so that the final concentration was 0.001, 0.01, 0.03, 0.1, 1, and 10 μM. The perfusate containing the compound (II) with a low concentration was added when the amount of current was almost steady, and the amount of current was then recorded while replacing it with a perfusate with a high concentration in the same manner. When the recording was ended, Ba^2+ (3 mM) was added, and the intrinsic leak current was measured. The measured data was analyzed using Clampfit 10.2 (commercially available from Molecular Devices). The IC50 value was calculated using GraphPad Prism version 5.00 (commercially available from GraphPad Software).

[2] = test system: KCNJ3 N83H mutant zebrafish; experiment: transgenic zebrafish model, heart rate and pulsation rhythm analysis (KCNJ3 N83H); format: in vivo, zebrafish (Danio rerio); conditions: for effect on heart rate and bradyarrhythmia: 100 nM in 0.03% sea salt aqueous solution, after 1 hour, 2 day old fry; for effect on sinus arrest / atrioventricular block caused by the N83H mutation: 100 nM, 1 hour after application
Procedure: (§3) As a comparative example, zebrafish for KCNJ3 WT expression was also prepared in the same manner.
Transgenic zebrafish was prepared by a transposon transfer system using transposon Tol2. Since the cardiac KACh channel was expressed in the sinoatrial node, atrioventricular node, and atrial muscle, a gene construct in which three genes of mCherry were linked with a 2A peptide was prepared so that human KCNJ3 WT or N83H and human KCNJ5, and additionally gene introduction thereof were able to be determined under a fluorescence microscope under the control of the atrial myosin heavy chain (amhc) promoter, which expressed a target gene in zebrafish in an atrial-specific manner (FIG. 3). Next, a small amount of mRNA of the transposase encoded by Tol2 gene and this construct were simultaneously injected into the fertilized egg. When the adult fish prepared in this manner were crossed with wild type zebrafish, fish whose germline transmission was confirmed by generating fry positive for mCherry in the atrium under a fluorescence microscope were used as an F0 founder. When this F0 founder was crossed with wild type zebrafish hspGFF3A, which expressed GFP in both the ventricle and the atrium (Proceedings of the National Academy of Sciences of the United States of America. 2008; 105:1255-1260.), the heart rate and the heart pulsation rhythm were analyzed using 2 day old F1 transgenic zebrafish fry which expressed GFP in the ventricle and GFP and mCherry in the atrium (FIG. 4). Specifically, zebrafish fry was fixed on a glass bottom dish with a diameter of 35 mm with a 0.5% low-melting-point agarose gel, and the fry heart in a 0.03% sea salt aqueous solution was observed under a fluorescence microscope. Based on the video of the heart beat acquired by the camera attached to the fluorescence microscope, detailed analysis of the heart rate and pulsation rhythm was performed using original M mode analysis software (The Journal of clinical investigation. 2007, 117:2812-2824.). The heart rate was measured by the pulsation of the sinus venosus part including the sinus node. Since the expression level of mCherry in the atrium was not different between KCNJ3 WT zebrafish and KCNJ3 N83H mutant zebrafish, the expression level of the KACh channel gene was considered to be the same in both cases. In the KCNJ3 N83H mutant zebrafish, significant atrial enlargement and a bradyarrhythmia phenotype similar to human cases (sinus arrest, sinus bradycardia, sinoatrial block, atrioventricular block) were observed (FIG. 5). Next, the 0.03% sea salt aqueous solution was replaced with a 0.03% sea salt aqueous solution containing the 100 nM compound (II), and the heart beat after 1 hour was analyzed in the same manner.

[3] = biological target: T2, KCNJ3 WT KACh channel (Homo sapiens, UniProt P48544+P48549); experiment: two-electrode voltage clamp, KACh channel expressed in Xenopus laevis oocytes (wild type); format: cell-based
T2 construct: expressed in transfected cells; host or cells: Xenopus laevis oocytes (cRNA injection)
T2 sequence (P48549 1-501): T1 sequence (P48549 1-501 N83H) with H83N
T2 sequence (P48544 1-419): T1 sequence (P48544 1-419)
Excerpt: as §1
The coding sequence of human KCNJ3 WT was obtained by amplifying a human KCNJ3 cDNA clone (commercially available from Invitrogen) by PCR, and subcloning it into a pCS2+ vector (commercially available from Addgene). The c.247A>C mutation providingKCNJ3 N83H was introduced by site-directed mutagenesis through PCR. Similarly, the human KCNJ5 coding sequence was obtained by amplifying a human KCNJ5 cDNA clone (commercially available from Invitrogen) by PCR and subcloning it into a pCS2+ vector. […]
as §2, with “The compound (II) dissolved in DMSO, and a perfusate was prepared so that the final concentration was 0.001, 0.01, 0.03, 0.1, 1, and 10 μM.” left out

[4] = biological target: T3, KCNJ5 WT/W101C KACh channel (Homo sapiens, UniProt P48544+P48549, W101C); experiment: two-electrode voltage clamp, W101C heterozygous mutant KACh channel in Xenopus laevis oocytes; format: cell-based; conditions: 0.01, 0.1 and 1 μM
T3 construct: expressed in transfected cells; host or cells: Xenopus laevis oocytes (cRNA injection)
T3 sequence (P48544 1-419 W101C): T1 sequence (P48544 1-419) with W101C
T3 sequence (P48544 1-419): T1 sequence (P48544 1-419)
T3 sequence (P48549 1-501): T1 sequence (P48549 1-501 N83H) with H83N
Procedure: In Xenopus laevis oocytes, in order to imitate autosomal dominant inheritance heterozygous, equimolar amounts of cRNAs of wild type KCNJ5 (KCNJ5 WT) and KCNJ5 W101C were injected together with cRNA of wild type KCNJ3 (KCNJ3 WT), the W101C heterozygous mutant KACh channel was expressed, electrodes were inserted, and the channel activity was confirmed by a two-electrode voltage clamp method.
The above human KCNJ5 cDNA clone (commercially available from Invitrogen) was amplified by PCR and subcloned it into a pCS2+ vector (commercially available from Addgene) to prepare a template, and the c.303G>C mutation providing KCNJ5 W101C was introduced by site-directed mutagenesis through PCR. […]
The whole cell current via the expressed KACh channel was measured by a two-electrode voltage clamp method using a GeneClamp 500 amplifier (commercially available from Molecular Devices). […] The perfusate containing the compound (I) with a low concentration was added when the current amplitude was almost steady, and the current amplitude was then recorded while replacing it with a perfusate with a high concentration in the same manner. When the recording was ended, Ba^2+ (3 mM) was added, and the intrinsic leak current was measured.

[5] = test system: KCNJ3 WT zebrafish; experiment: transgenic zebrafish model, heart rate analysis (KCNJ3 WT); format: in vivo, zebrafish (Danio rerio); conditions: 100 nM, after 1 hour
Procedure: as §3
Transgenic zebrafish was prepared by a transposon transfer system using transposon Tol2. Since the cardiac KACh channel was expressed in the sinoatrial node, atrioventricular node, and atrial muscle, a gene construct in which three genes of mCherry were linked with a 2A peptide was prepared so that human KCNJ3 WT or N83H and human KCNJ5, and additionally gene introduction thereof were able to be determined under a fluorescence microscope under the control of the atrial myosin heavy chain (amhc) promoter, which expressed a target gene in zebrafish in an atrial-specific manner (FIG. 3). […] When the adult fish prepared in this manner were crossed with wild type zebrafish, fish whose germline transmission was confirmed by generating fry positive for mCherry in the atrium under a fluorescence microscope were used as an F0 founder. When this F0 founder was crossed with wild type zebrafish hspGFF3A, which expressed GFP in both the ventricle and the atrium (Proceedings of the National Academy of Sciences of the United States of America. 2008; 105:1255-1260.), the heart rate and the heart pulsation rhythm were analyzed using 2 day old F1 transgenic zebrafish fry which expressed GFP in the ventricle and GFP and mCherry in the atrium (FIG. 4). […]

[6] = biological target: T2, KCNJ3 WT KACh channel; conditions: literature (Jin W, Lu Z. Biochemistry 1999); cited from earlier work

| Molecule | inhibition of the N83H mutant compared with the WT KACh channel [1] | inhibitory effect on the KCNJ3 N83H KACh channel [1] | effect on heart rate and bradyarrhythmia [2] | effect on sinus arrest / atrioventricular block caused by the N83H mutation [2] | inhibitory effect on the KCNJ3 WT KACh channel ([3]; two-electrode voltage clamp) | inhibitory effect on the KCNJ5 WT/W101C KACh channel [4] | IC50 ([1]; N83H mutant, n=14, p<0.01 vs wild type, read-out: IC50 value, inhibition of whole cell current) [nM] | effect on heart rate [5] | IC50 ([3]; wild type, n=13, read-out: IC50 value, inhibition of whole cell current) [nM] | inhibitory action on the KCNJ3 WT KACh channel [6] |
| --- | --- | --- | --- | --- | --- | --- | --- | --- | --- | --- |
| Cc1cc(CO)nc2cc3c(cc12)OC(C)(C)[C@H](O)[C@H]3NCCc1ccccc1 [compound (I), (3R4S)-7-hydroxymethyl-2,2,9-trimethyl-4-(phenethylamino)-3,4-dihydro-2H-pyra no[2,3-g]quinoline-3-ol] | stronger on N83H than WT | exhibited the inhibitory effect | increasing the heart rate and improving bradyarrhythmia | improved the sinus arrest and atrioventricular block | exhibited the inhibitory effect | concentration-dependent inhibitory effect |  |  |  |  |
| CC1(C)Oc2cc([N+](=O)[O-])c(N)cc2[C@H](NCCc2ccccc2)[C@H]1O [compound (II), (3R,4S)-6-amino-3,4-di hydro-2,2-dimethyl-7-nitro-4-(2-phenethylamino)-2H-1-benzopyran-3-ol] | higher affinity for the mutant KACh channel | concentration-dependent inhibitory effect | increasing the heart rate and improving bradyarrhythmia |  |  |  | 50 ± 12 | appropriate increase in the heart rate without causing excess tachycardia | 230 ± 60 |  |
| Tertiapin-Q [reference compound] |  |  |  | did not improve sinus arrest |  |  |  |  |  | inhibitory action |
